The numbers were not newly measured in US20120301532A1, “COMPOSITIONS AND METHODS FOR TREATING MATERIALS WITH INSECTICIDES AND POTENTIATING AGENTS” (ALLERGY TECHNOLOGIES, LLC, priority 2011, published 2012), which cites them from elsewhere.

Bounds are passed on as bounds.

This series deals with bed bugs. The conditions noted are these: bed bug attractants, background statement.

Regarding `O=C=O` [CO2], the effective attractant range is on record as no less than 86 centimeters.
